Experimental data as given in patent US6624140B1, “Synthetic peptides with antimicrobial and endotoxin neutralizing properties for management of the sepsis syndrome” (Academisch Ziekenhuis Bij de Universiteit van Amsterdam …, priority 1997, dated 2003).
No end group written: not given here.

Key:
[1] = test system: Staphylococcus aureus; experiment: Bactericidal activity in liquid culture, S. aureus; type: cell-based; settings: for effect on cell-density of Gram-positive bacterial cultures: in words; for % bacteria killed: 10^7 S. aureus bacteria/ml LB medium 37° C., concentration effective dose 3 (M^−6)
Experimental: FIGS. 1A and 1B. The effect of synthetic peptides on the survival of E. coli 0111:B4 (panel A) or S. aureus (panel B). Logarithmically growing bacterial cells at a density of 10^7 cells/ml in Luria-Bertani (LB) medium were incubated with synthetic peptides at concentrations of 3, 5 and 7 μg/ml (1, 2 and 3 μM) at 37° C. for 1 h and the residual cell density expressed as a percentage of the value obtained from bacterial cultures without added peptides.
A peptide encompassing a selected LPS-binding domain from a well characterized human antiendotoxin protein, known as bactericidal/permeability increasing protein (BPI), from amino acids 85 to 102, denoted as BPI(85-102), was included for a direct comparison of the efficacy of the endotoxin-binding domain of a naturally occurring protein and the synthetic peptides of the invention. The amino acid sequence of the BPI(85-102) peptide is:
The BPI(85-102) reference peptide was synthesized as previously described for peptides of the invention and provided with a C-terminal Cys residue for the purpose of biotinylation as previously described. […] Incubation of various concentrations of the synthetic peptides according to the invention for a limited time period on the survival of both types of bacteria again illustrated their potent anti-microbial activity as opposed to that of the BPI(85-102) peptide (FIG. 1) with the sequence corresponding to that of the potential LPS binding domain of the native BPI protein. This is indicative of a broad specificity of the synthetic peptides, in keeping with the general bactericidal properties of this class of linear amphipathic α-helical peptides. […] The B2 residue in the N-terminal repetitive sequence element in each instance, instead of an aromatic amino acid residue, as specified by the formula of the invention, was replaced with an Ala residue and the hydrophobic (C2)n element made hydrophilic by substitution with Lys and Cys residues.

[2] = Turbidity assay of endotoxin complexation; type: binding, Escherichia coli; settings: for avidity order (degree of insoluble peptide-endotoxin complex formation): 2-fold molar excess of synthetic peptide
Experimental: FIG. 2. Endotoxin complexation activity of the synthetic peptides. Peptides at concentrations of 100 to 600 μg/ml were incubated with E. coli D31m4 Re or J5 LPS at 100 μg/ml in a total volume of 100 μl pyrogen-free phosphate buffered saline (PBS) in plastic ELISA microtiter plates for 30 min at 23° C. The turbidity produced by the insoluble peptide-endotoxin complexes was measured at 340 nm. The values represent the mean of three determinations and were corrected for controls containing the same concentrations of endotoxin or peptide.
Double-immunodiffusion of the peptides of the invention against ‘rough’ R-type E. coli D31m4 Re-LPS (List Biological Laboratories Inc., Calif.) or the structurally more complex ‘smooth’ S-type E. coli 0111:B4 LPS (Sigma Chemical Co., Rockford, Ill.) was performed in 0.8% (w/v) agarose containing 50 mM Tris and 0.1% (w/v) Triton X100, pH 7.5. for 16 h at 20° C. PmB and BPI(85-102) were included as control compounds for comparative purposes. The microprecipitates formed were visualized by Coommassie brilliant blue staining. […] Since the amount of precipitate formed is a function of valency, the peptides of the invention appear to be capable of a high degree of intermolecular binding of LPS molecules via the Lipid A moieties. […] A turbidity assay was employed for a direct comparison of the endotoxin-binding activity or avidity of selected synthetic peptides according to the invention using the ‘rough’ serotypes E. coli Re or Rc (J5) LPS. PmB and BPI(85-102) were included as control compounds for comparative purposes. The degree of precipitation of endotoxin by the synthetic peptides according to the invention was determined by measurement of the optical density of insoluble complexes formed at 340 nm (FIG. 2). In most instances optimal complexation of Re or J5 LPS by the synthetic peptides of the invention was evident at a molar ratio of peptide to endotoxin of 1 to 2. The control BPI(85-102) peptide was required at a 4-fold molar excess for approximately the same degree of complexation. […] There was no significant difference between complexation of Re or the structurally more complex J5-LPS by the synthetic peptides. […] The Lipid A binding affinity of the synthetic peptides were directly compared in a solid-state endotoxin-binding assay. Binding characteristics of biotinylated derivatives of the synthetic peptides BP1, BP2, BP2.1 and the control peptide BPI(85-102) were determined on ELISA microtiter plates coated with E. coli D31m4 Lipid A. Specific binding of the biotinylated peptides to the immobilized Lipid A was determined by development with Streptavidin-HRP and 3, 5, 3′, 5′ tetra-methylbenzidine (TMB) substrate and expressed as the corrected optical density at 450 nm. […] The affinity of the novel synthetic peptide BP2 for endotoxin of increasing complexity as well as the effect of plasma on binding was examined with the use of the ELISA microplate assay.

Row | Substance | effect on cell-density of Gram-positive bacterial cultures [1] | avidity order (degree of insoluble peptide-endotoxin complex formation) [2] | % bacteria killed [1] | molar excess required for approximately the same degree of complexation ([2]; Re or J5 LPS)
1 | GKWKLFKKAFKKFLKILAC-OH [BP2, Gly-Lys-Trp-Lys-Leu-Phe-Lys-Lys-Ala-Phe-Lys-Lys-Phe-Leu-Lys-Ile-Leu-Ala-Cys] | dose-dependent reduction | BP2.1>BP2.2>BP2>BP1>PmB >BPI(85-102) | – | –
2 | GRLRKKWKAFKKFLKILAC [BP1] | dose-dependent reduction | BP2.1>BP2.2>BP2>BP1>PmB >BPI(85-102) | 34% | –
3 | Ile-Lys-Ile-Ser-Gly-Lys-Trp-Lys-Ala-Gin-Lys-Arg-Phe-Leu-Lys-Met-Ser-Gly-(Cys) (IKISGKWKAQKRFLKMSGC; listed as Homo sapiens) [BPI(85-102), reference compound] | no effect | BP2.1>BP2.2>BP2>BP1>PmB >BPI(85-102) | 0% | 4 fold
